Data: PubChem BioAssay AID1963843 (Molecular Pharmacology Branch, DTP, NCI, 2024)

Tested on: 616215-338-R-J1-PDC complex spheroid viability
Test: Anticancer human tumor 616215-338-R-J1-PDC patient-derived colon adenocarcinoma cell line growth inhibition [POLQ]
Conditions: for IC50: curve of first compound; for viability, T/C: stronger effect = lower value
Method: Multicellular complex tumor spheroid response to Polymerase (POL) inhibitors (novobiocin, ART-558, RP6685) in combination with a variety of drugs and investigational agents in selected tumor cell lines
The POL inhibitors (novobiocin, ART-558, and RP6685) were evaluated both individually and in combination with standard of care and investigational anticancer small molecules within a complex spheroid model of solid tumors. . Complex spheroids include a stromal component modeled by human endothelial cells (HUVEC) and fibroblasts modeled by human mesenchymal stem cells (MSCs). The concentration ranges selected for each drug and investigational agent were based upon clinically achievable concentrations if the clinical Cmax of the agent was known.
Compounds. The drugs and investigational agents: novobiocin (NSC847541), ART-558 (NSC835418), RP-6685 (NSC848927), peposertib (NSC802822), ceralasertib (NSC780249), elimusertib (NSC800525), camonsertib (NSC841442), AZD-1390 (NSC803789), olaparib (NSC753686), talazoparib (NSC767125), rucaparib (NSC756644), sotorasib (NSC818433), MRTX-1133 (NSC836407), SN-38 (NSC673596), topotecan (NSC609699), epotoside (NSC141540), doxorubicin (NSC123127), gemcitabine (NSC613327), 5-fluorouracil (NSC19893), paclitaxel (NSC125973), vemurafenib (NSC761431), MSA-2 (NSC828583), SN-011 (NSC837082), adavosertib (NSC754352), prexasertib (NSC758257), carboplatin (NSC241240) and oxaliplatin (NSC266046), were obtained from the National Cancer Institute (NCI) Developmental Therapeutics Program Chemical Repository (21). The FDA-approved anticancer drug set is available from the Developmental Therapeutics Program at https://dtp.cancer.gov/organization/dscb/obtaining/. […] The stock solutions were prepared in dimethyl sulfoxide (DMSO, Sigma-Aldrich, St. Louis, MO, cat. D2650), except for the platinum compounds which were prepared in saline (Quality Biological, Gaithersburg, MD, cat. 114-055-101), at 800-fold the tested concentration and stored at -70 degrees C prior to their use. All drugs and investigational agents were tested over a range starting from a high concentration at or near the clinical Cmax and decreasing in half-log increments. If the clinical Cmax for an agent had not been determined, the highest concentration tested was 10 microM, except for SN-38, which was tested at a high concentration of 1 microM.
Cell Culture. All cells were maintained in an incubator at 37 degrees C and 5% CO2 with 95% humidity. The PDC lines were cultured according to standard operating procedures established by the NCI PDMR (https://pdmr.cancer.gov). Table 3 of the manuscript, lists the cell lines along with the number of the three cell types plated to form the mct-spheroids and media for tumor cell growth. After thawing, all PDC lines, except 997537-175-T-J1-PDC and 415267-285-R-J2-PDC, were cultured in Matrigel-coated flasks prepared with a working solution of 1X Ham's F-12 nutrient mix, without supplementation (Thermo Fisher Scientific, cat. 11765054), 100 U/mL penicillin-streptomycin (Thermo Fisher Scientific, cat. 15140122), and 2.5% Matrigel (Corning Inc., Corning, NY, cat. 354248) for the first three passages. The two PDC lines 997537-175-T-J1-PDC and 415267-285-R-J2-PDC were cultured on uncoated flasks. The 857933-349-R-J2-PDC line was cultured in 6C/Colon 1B media containing advanced DMEM/F-12 (Thermo Fisher Scientific, cat. 12634028), 10 mM HEPES (Thermo Fisher Scientific, cat. 15630080), 1X GlutaMAX supplement (Thermo Fisher Scientific, cat. 35050061), 0.1 mg/mL primocin (InvivoGen, San Diego, CA, cat. ant-pm-2), 10% defined fetal bovine serum, heat inactivated (HyClone Laboratories Inc., Logan, UT, cat. SH30070.03HI), 50% L-WRN conditioned media (ATCC, cat. CRL-3276), 1.25 mM N-Acetyl-L-cysteine (Sigma-Aldrich, cat. A9165), 10 mM nicotinamide (Sigma-Aldrich, cat. N0636), 1X B-27 supplement (Thermo Fisher Scientific, cat. 17504044), 1X N-2 supplement (Thermo Fisher Scientific, cat. […]

[1] = second compound 0.0316 µM, first compound 0.0316 µM
[2] = second compound 0.0316 µM, first compound 0.1 µM
[3] = second compound 0.0316 µM, first compound 0.316 µM
[4] = second compound 0.0316 µM, first compound 1 µM
[5] = second compound 0.0316 µM, first compound 3.16 µM
[6] = second compound 0.0316 µM, first compound 10 µM
[7] = second compound 0.1 µM, first compound 0.0316 µM
[8] = second compound 0.1 µM, first compound 0.1 µM
[9] = second compound 0.1 µM, first compound 0.316 µM
[10] = second compound 0.1 µM, first compound 1 µM
[11] = second compound 0.1 µM, first compound 3.16 µM
[12] = second compound 0.1 µM, first compound 10 µM
[13] = second compound 0.316 µM, first compound 0.0316 µM
[14] = second compound 0.316 µM, first compound 0.1 µM
[15] = second compound 0.316 µM, first compound 0.316 µM
[16] = second compound 0.316 µM, first compound 1 µM
[17] = second compound 0.316 µM, first compound 3.16 µM
[18] = second compound 0.316 µM, first compound 10 µM
[19] = second compound 1 µM, first compound 0.0316 µM
[20] = second compound 1 µM, first compound 0.1 µM
[21] = second compound 1 µM, first compound 0.316 µM
[22] = second compound 1 µM, first compound 1 µM
[23] = second compound 1 µM, first compound 3.16 µM
[24] = second compound 1 µM, first compound 10 µM
[25] = second compound 3.16 µM, first compound 0.0316 µM
[26] = second compound 3.16 µM, first compound 0.1 µM
[27] = second compound 3.16 µM, first compound 0.316 µM
[28] = second compound 3.16 µM, first compound 1 µM
[29] = second compound 3.16 µM, first compound 3.16 µM
[30] = second compound 3.16 µM, first compound 10 µM
[31] = second compound 10 µM, first compound 0.0316 µM
[32] = second compound 10 µM, first compound 0.1 µM
[33] = second compound 10 µM, first compound 0.316 µM
[34] = second compound 10 µM, first compound 1 µM
[35] = second compound 10 µM, first compound 3.16 µM
[36] = second compound 10 µM, first compound 10 µM
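Further: spheroids exposed to compounds for one week before readout.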
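Wherever viability, T/C is given: percent viability relative to DMSO vehicle wells taken as 100%.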

COc1cc(C2c3cc4c(cc3C(OC3OC5COC(C)OC5C(O)C3O)C3COC(=O)C23)OCO4)cc(OC)c1O (centres undefined) + Cc1cccc(N(C)C(=O)C2C(O)CCN2c2nc(C)cc(C(F)(F)F)c2C#N)c1
IC50 (second compound 0.0316 µM): > 10 µM
IC50 (second compound 0.1 µM): > 10 µM
IC50 (second compound 0.316 µM): 9.66 µM
IC50 (second compound 1 µM): 9.43 µM
IC50 (second compound 3.16 µM): > 10 µM
IC50 (second compound 10 µM): 9.51 µM
viability, T/C [1]: 95.8%
viability, T/C [2]: 102%
viability, T/C [3]: 85.3%
viability, T/C [4]: 94%
viability, T/C [5]: 70.9%
viability, T/C [6]: 61.5%
viability, T/C [7]: 94.8%
viability, T/C [8]: 95.5%
viability, T/C [9]: 94.1%
viability, T/C [10]: 77.9%
viability, T/C [11]: 80.6%
viability, T/C [12]: 50.8%
viability, T/C [13]: 95.4%
viability, T/C [14]: 101%
viability, T/C [15]: 88.6%
viability, T/C [16]: 85.1%
viability, T/C [17]: 73.4%
viability, T/C [18]: 48.8%
viability, T/C [19]: 94.4%
viability, T/C [20]: 96.5%
viability, T/C [21]: 85.4%
viability, T/C [22]: 81.4%
viability, T/C [23]: 76.7%
viability, T/C [24]: 47.2%
viability, T/C [25]: 105%
viability, T/C [26]: 106%
viability, T/C [27]: 80.5%
viability, T/C [28]: 81.7%
viability, T/C [29]: 78%
viability, T/C [30]: 48.9%
viability, T/C [31]: 107%
viability, T/C [32]: 102%
viability, T/C [33]: 68.4%
viability, T/C [34]: 93.3%
viability, T/C [35]: 67.4%
viability, T/C [36]: 44.7%

C#Cc1c(F)ccc2cc(O)cc(-c3ncc4c(N5CC6CCC(C5)N6)nc(OCC56CCCN5CC(F)C6)nc4c3F)c12 (centres undefined) + Cc1cccc(N(C)C(=O)C2C(O)CCN2c2nc(C)cc(C(F)(F)F)c2C#N)c1
IC50 (second compound 0.0316 µM): > 10 µM
IC50 (second compound 0.1 µM): > 10 µM
IC50 (second compound 0.316 µM): > 10 µM
IC50 (second compound 1 µM): > 10 µM
IC50 (second compound 3.16 µM): > 10 µM
IC50 (second compound 10 µM): > 10 µM
viability, T/C [1]: 88.6%
viability, T/C [2]: 109%
viability, T/C [3]: 94.2%
viability, T/C [4]: 101%
viability, T/C [5]: 113%
viability, T/C [6]: 71.8%
viability, T/C [7]: 101%
viability, T/C [8]: 110%
viability, T/C [9]: 103%
viability, T/C [10]: 109%
viability, T/C [11]: 103%
viability, T/C [12]: 73.9%
viability, T/C [13]: 99.8%
viability, T/C [14]: 101%
viability, T/C [15]: 98.1%
viability, T/C [16]: 99.6%
viability, T/C [17]: 91.8%
viability, T/C [18]: 69.8%
viability, T/C [19]: 103%
viability, T/C [20]: 107%
viability, T/C [21]: 94.9%
viability, T/C [22]: 108%
viability, T/C [23]: 104%
viability, T/C [24]: 64.3%
viability, T/C [25]: 104%
viability, T/C [26]: 99.2%
viability, T/C [27]: 101%
viability, T/C [28]: 101%
viability, T/C [29]: 103%
viability, T/C [30]: 66.7%
viability, T/C [31]: 101%
viability, T/C [32]: 101%
viability, T/C [33]: 108%
viability, T/C [34]: 96.3%
viability, T/C [35]: 73.9%
viability, T/C [36]: 67.8%
